The values that follow come from US20210260010A1, “COMPOSITIONS AND METHODS FOR THE REDUCTION OR TREATMENT OF INFLAMMATION” (AXCELLA HEALTH INC., priority 2018, published 2021).

This series is described as follows: FATZO mouse NASH model on western diet plus fructose (Example 8): body and liver weight, liver histology, NAS, fibrosis. The format is in vivo, FATZO mice. From the text: NASH was induced in 60 male FATZO mice by a western diet (Research Diet #D12079B; fat 40% kcal, protein 17% kcal, carbohydrate 43% kcal) supplemented with 5% fructose in the drinking water (WDF) during a 16 week induction phase. Diets and water were available ad libitum. Littermate control male FATZO mice fed with a control diet (n=6, Purina #5008; fat 17% kcal, protein 27% kcal, carbohydrate 56% kcal) and sterile water were set up for control purpose. Mice were housed in plastic cages with microisolator. Sterilized bedding was replaced once a week. Mice were housed three per cage and maintained on a twelve hour light cycle throughout study duration. Room temperature was monitored daily and maintained at 22-25° C. Body weight was recorded every week during the induction phase.
Following 16 weeks diet induction, 6 mice remained on control diet (group 1, Control) while 60 induced mice were randomized on body weight and plasma glucose (fed) for assignment to the following treatments. FATZO mice were administered with test articles starting at 16 weeks post western diet NASH induction for 4 weeks. Test articles were administered by oral gavage. Animals were euthanized at 20 weeks post western diet NASH induction, and tissues were harvested for analysis.
[…], […]+G, LRQNAC, and OCA (Advanced ChemBlocks, Inc.), incipient, and water for irrigation were provided by Axcella Health, Inc. 0.5% Methylcellulosewas provided by CrownBio, Inc. Dosing solutions were prepared according to Appendix 1. […] Obeticholic acid (OCA) was suspended in 0.5% methylcellulose in water for irrigation. All test articles were stored refrigerated. TA compounds were provided in frozen powder form by the sponsor. Dosing was continued for 4 weeks.
[…], […]+G, LRQNAC, OCA and Vehicle were administered by oral gavage at a volume of 10 mL/kg throughout the study. Dosages were calculated by daily body weight. […], […]+G, LRQNAC, and Vehicle were administered twice per day (BID), while OCA was administered once a day (QD) in the morning. Mice receiving OCA once per day (QD), and one vehicle QD. Doses were administered by oral gavage at 0700 and 1800 by oral gavage for 4 weeks.
The viability, clinical signs and behavior were monitored daily. Body weight was recorded daily during the dosing period. Blood samples were collected weekly in the AM (0700) via tail clip for glucose measurement (StatStrip glucometer).
Animals were anesthetized with CO2 inhalation and exsanguinated via cardiac puncture for euthanasia. Terminal blood samples (K2EDTA) were obtained by cardiac puncture in anesthetized animals at termination. Samples were provided frozen to Axcella Health. Organ weights (total liver, gonadal fat pads) were recorded. Pancreas, and small intestine and gonadal fat pads were fixed in 10% Buffered Formalin and prepared as directed in protocol. A section of small intestine, gonadal fat pad and liver were also snap frozen in liquid nitrogen and shipped to the sponsor.
The liver tissues were fixed in Bouin's solution at 4° C. for 24 hours followed by baths of standard concentrations of alcohol then xylene to prepare the tissues for paraffin embedding. After being embedded in paraffin and cooled, five-micron sections were cut and stained for routine H&E and Picric Sirius Red. A section of both right and left lobes of the livers were frozen in OCT for analysis of lipid content with Oil-Red-) staining. The Aperio whole slide digital imaging system (Scan Scope CS, Vista, Calif.) was used for imaging. All slides were imaged at 20×. The scan time ranged from 1.5 minutes to a maximum time of 2.25 minutes. The whole images were housed and stored in their Spectrum software system and images were shot from the whole slides.
The livers were evaluated using the NASH liver criteria for scoring. In this mouse study, one cross section of liver for each case was analyzed with the NASH score system. […]

The mark [1] stands for this setting: FATZO mice on WDF, 4 weeks, LIVRQNAC+G 3885 mg/kg, LRQNAC 2469 mg/kg BID, OCA 30 mg/kg/day QD.
Where [2] appears, read: score 0-3, WDF fed FATZO mice, oral gavage 4 weeks, LIVRQNAC+G and LRQNAC leucine-matched BID, OCA QD.

As for `CC[C@H]1[C@@H](O)[C@@H]2[C@H](CC[C@]3(C)[C@@H]([C@H](C)CCC(=O)O)CC[C@@H]23)[C@@]2(C)CC[C@@H](O)C[C@@H]12` [OCA, 6α-ethyl-chenodeoxycholic acid], the “NAFLD activity score (NAS)” value (FATZO mice on WDF, 4 weeks, vs vehicle, LIVRQNAC 1500 or 3000 mg/kg, LIVRQNAC+G 3885 mg/kg, LRQNAC 2469 mg/kg, OCA 30 mg/kg/day) was “no significant effect”. For the same molecule, under setting [1], the “Body weight change compared to baseline” value was −3.9±1.5% and the “Liver weight (% body weight)” value stood at 6.81±0.2 % body weight. The “Liver Pathology NAS” value (WDF fed FATZO mice, oral gavage 4 weeks, LIVRQNAC+G and LRQNAC leucine-matched BID, OCA QD) turned out to be 3.72 ± 0.147. Besides, the “Liver Pathology Ballooning” value (score 0-2, WDF fed FATZO mice, oral gavage 4 weeks, LIVRQNAC+G and LRQNAC leucine-matched BID, OCA QD) worked out at 0.94 ± 0.056. Under setting [2], the “Liver Pathology Inflammation” value came to 1.0 ± 0.0 and the “Liver Pathology Steatosis” value is given as 1.78 ± 0.147.
